# Assay results from patent US11230541B2, “Heterocyclic compound” (Takeda Pharmaceutical Company Limited, priority 2017, dated 2022).
# Target: T1, NMDA receptor composed of four subunits including 2 sets of heterodimers of NR1 and NR2B (Homo sapiens, UniProt Q13224)
# T1 construct: host or cells: HEK293 (tetracycline-induced expression)
# Experiment: NR2B Ca2+ influx assay (FLIPR, Fluo-4) in HEK293 cells expressing human GRIN1 and GRIN2B
# Type: cell-based
# Conditions: HEK293, 10 μM final compound concentration, glutamic acid/glycine-induced Ca2+ influx, read-out: inhibitory rate (10 μM compound concentration)
# Outline: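 Inhibition rate was calculated from 5-min cumulative Fluo-4 signal (FLIPR, 3-s reads), using agonist-free buffer wells as 100% inhibition. Compound, 10 μM final, was applied 15 min before adding buffer with 30 μM glutamic acid and glycine to HEK293 cells with tetracycline-induced human NR1/NR2B, in HEPES pH 7.2 with 1.8 mM CaCl2.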
# T1 sequence (Q13224 27-1484, other chains not shown): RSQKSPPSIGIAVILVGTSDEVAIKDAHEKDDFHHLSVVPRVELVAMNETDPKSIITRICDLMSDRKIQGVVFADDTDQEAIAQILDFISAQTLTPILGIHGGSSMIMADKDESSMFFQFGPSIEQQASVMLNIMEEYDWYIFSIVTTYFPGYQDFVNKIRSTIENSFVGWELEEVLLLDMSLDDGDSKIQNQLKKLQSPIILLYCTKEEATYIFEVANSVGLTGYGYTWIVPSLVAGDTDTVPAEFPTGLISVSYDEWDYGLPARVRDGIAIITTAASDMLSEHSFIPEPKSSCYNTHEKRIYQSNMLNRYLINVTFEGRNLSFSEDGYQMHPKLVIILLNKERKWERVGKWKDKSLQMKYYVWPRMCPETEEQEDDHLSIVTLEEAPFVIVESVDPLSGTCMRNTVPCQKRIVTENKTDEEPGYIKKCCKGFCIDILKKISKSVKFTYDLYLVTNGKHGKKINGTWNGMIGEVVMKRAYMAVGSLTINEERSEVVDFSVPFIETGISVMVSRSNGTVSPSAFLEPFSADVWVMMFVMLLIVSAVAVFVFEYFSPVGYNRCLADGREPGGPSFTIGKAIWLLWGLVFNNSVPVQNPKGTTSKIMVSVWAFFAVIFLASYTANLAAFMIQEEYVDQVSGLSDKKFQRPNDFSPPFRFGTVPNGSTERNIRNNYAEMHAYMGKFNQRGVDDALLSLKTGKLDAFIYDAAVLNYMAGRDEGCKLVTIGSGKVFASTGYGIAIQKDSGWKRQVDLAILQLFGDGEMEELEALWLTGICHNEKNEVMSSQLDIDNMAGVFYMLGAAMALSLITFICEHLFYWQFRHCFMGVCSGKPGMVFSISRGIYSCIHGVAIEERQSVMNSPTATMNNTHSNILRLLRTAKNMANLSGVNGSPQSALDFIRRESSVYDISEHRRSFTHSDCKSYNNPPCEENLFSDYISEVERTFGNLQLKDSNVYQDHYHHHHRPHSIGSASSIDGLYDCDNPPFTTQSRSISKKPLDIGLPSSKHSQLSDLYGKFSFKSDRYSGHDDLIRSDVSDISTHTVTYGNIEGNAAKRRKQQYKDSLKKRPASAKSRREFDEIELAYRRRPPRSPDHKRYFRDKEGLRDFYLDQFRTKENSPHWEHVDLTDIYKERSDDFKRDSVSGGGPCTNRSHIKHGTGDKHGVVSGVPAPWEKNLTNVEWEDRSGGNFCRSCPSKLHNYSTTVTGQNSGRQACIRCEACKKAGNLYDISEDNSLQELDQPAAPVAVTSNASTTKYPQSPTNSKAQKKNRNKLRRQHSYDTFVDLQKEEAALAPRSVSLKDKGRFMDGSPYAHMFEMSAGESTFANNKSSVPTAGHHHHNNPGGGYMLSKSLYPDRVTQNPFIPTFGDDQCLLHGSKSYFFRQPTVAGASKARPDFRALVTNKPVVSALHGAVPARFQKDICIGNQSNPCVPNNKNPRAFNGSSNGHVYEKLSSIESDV
row,SMILES,inhibition at 10 µM [%]
1,"O=C(NCc1cccc2[nH]ncc12)c1ccc(OC(F)(F)F)nc1 [Example 170, N-(1H-indazol-4-ylmethyl)-6-(trifluoromethoxy)-nicotinamide]",76
2,"CCOc1ncc(C(=O)NCc2cccc3[nH]ncc23)cc1F [Example 171, 6-ethoxy-5-fluoro-N-(1H-indazol-4-ylmethyl)nicotinamide]",85
3,"COc1ncc(C(=O)NCc2cccc3[nH]ncc23)cc1F [Example 172, 5-fluoro-N-(1H-indazol-4-ylmethyl)-6-methoxynicotinamide]",60
4,"O=C(NCc1cccc2[nH]ncc12)c1cc(F)c(C(F)(F)F)c(F)c1 [Example 173, 3,5-difluoro-N-(1H-indazol-4-ylmethyl)-4-(trifluoromethyl)-benzamide]",80
5,"O=C(NCc1cccc2[nH]ncc12)c1ccc(C(F)(F)F)c(F)c1 [Example 174, 3-fluoro-N-(1H-indazol-4-ylmethyl)-4-(trifluoromethyl)-benzamide]",80
6,"O=C(NCc1cccc2[nH]ncc12)c1ccc(C(F)(F)F)cc1 [Example 175, N-(1H-indazol-4-ylmethyl)-4-(trifluoromethyl)-benzamide]",82
7,"Cc1ccc(C(=O)NCc2cccc3[nH]ncc23)cc1F [Example 176, 3-fluoro-N-(1H-indazol-4-ylmethyl)-4-methylbenzamide]",51
8,"O=C(NCc1cccc2[nH]ncc12)c1ccc(C(F)F)cc1 [Example 177, 4-(difluoromethyl)-N-(1H-indazol-4-ylmethyl)benzamide]",52
9,"O=C(NCc1cccc2[nH]ncc12)c1ccc(C(F)F)c(F)c1 [Example 178, 4-(difluoromethyl)-3-fluoro-N-(1H-indazol-4-ylmethyl)benzamide]",70
10,"O=C(NCc1cccc2[nH]ncc12)c1ccc(OC(F)(F)F)c(F)c1 [Example 179, 3-fluoro-N-(1H-indazol-4-ylmethyl)-4-(trifluoromethoxy)-benzamide]",96
11,"COc1c(F)cc(C(=O)NCc2cccc3[nH]ncc23)cc1F [Example 180, 3,5-difluoro-N-(1H-indazol-4-ylmethyl)-4-methoxybenzamide]",89
12,"COc1ccc(C(=O)NCc2cccc3[nH]ncc23)cc1F [Example 181, 3-fluoro-N-(1H-indazol-4-ylmethyl)-4-methoxybenzamide]",67
13,"O=C(NCc1cccc2[nH]ncc12)c1ccc(OC(F)F)c(Cl)c1 [Example 182, 3-chloro-4-(difluoromethoxy)-N-(1H-indazol-4-ylmethyl)benzamide]",97
14,"O=C(NCc1cccc2[nH]ncc12)c1ccc(OC(F)F)cc1 [Example 183, 4-(difluoromethoxy)-N-(1H-indazol-4-ylmethyl)benzamide]",87
15,"O=C(NCc1cccc2[nH]ncc12)c1cc(F)c(OC(F)F)c(F)c1 [Example 184, 4-(difluoromethoxy)-3,5-difluoro-N-(1H-indazol-4-ylmethyl)benzamide]",93
16,"Cc1ccc(C(=O)NCc2cccc3[nH]ncc23)cc1Cl [Example 185, 3-chloro-N-(1H-indazol-4-ylmethyl)-4-methylbenzamide]",74
17,"O=C(NCc1cccc2[nH]ncc12)c1ccc(F)c(Cl)c1 [Example 186, 3-chloro-4-fluoro-N-(1H-indazol-4-ylmethyl)benzamide]",56
18,"O=C(NCc1cccc2[nH]ncc12)c1ccc(Cl)c(F)c1 [Example 187, 4-chloro-3-fluoro-N-(1H-indazol-4-ylmethyl)benzamide]",74
19,"O=C(NCc1cccc2[nH]ncc12)c1cc(F)c(F)c(Cl)c1 [Example 188, 3-chloro-4,5-difluoro-N-(1H-indazol-4-ylmethyl)benzamide]",52
20,"O=C(NCc1cccc2[nH]ncc12)c1cc(F)c(Cl)c(F)c1 [Example 189, 4-chloro-3,5-difluoro-N-(1H-indazol-4-ylmethyl)benzamide]",67
21,"O=C(NCc1cccc2[nH]ncc12)c1ccc(C(F)F)c(Cl)c1 [Example 190, 3-chloro-4-(difluoromethyl)-N-(1H-indazol-4-ylmethyl)benzamide]",86
22,"O=C(NCc1cccc2[nH]ncc12)c1cnc(OC(F)F)c(F)c1 [Example 191, 6-(difluoromethoxy)-5-fluoro-N-(1H-indazol-4-ylmethyl)nicotinamide]",94
23,"O=C(NCc1cccc2[nH]ncc12)c1ccc(OC(F)F)c(F)c1 [Example 192, 4-(difluoromethoxy)-3-fluoro-N-(1H-indazol-4-ylmethyl)benzamide]",94

row,SMILES,inhibition at 10 µM [%]
1,"COc1ncc(C(=O)NCc2c(C)ccc3[nH]nnc23)cc1F [Example 193, 5-fluoro-6-methoxy-N-((5-methyl-1H-benzotriazol-4-yl)methyl)nicotinamide]",86
2,"Cc1ccc2[nH]nnc2c1CNC(=O)c1ccc(OC(F)(F)F)cc1 [Example 194, N-((5-methyl-1H-benzotriazol-4-yl)methyl)-4-(trifluoromethoxy)-benzamide]",97
3,"Cc1ccc2[nH]nnc2c1CNC(=O)c1cc(F)c(C(F)(F)F)c(F)c1 [Example 195, 3,5-difluoro-N-((5-methyl-1H-benzotriazol-4-yl)methyl)-4-(trifluoromethyl)-benzamide]",91
4,"Cc1ccc2[nH]nnc2c1CNC(=O)c1cc(F)c(C)c(F)c1 [Example 196, 3,5-difluoro-4-methyl-N-((5-methyl-1H-benzotriazol-4-yl)methyl)benzamide]",78
5,"COc1c(F)cc(C(=O)NCc2c(C)ccc3[nH]nnc23)cc1F [Example 197, 3,5-difluoro-4-methoxy-N-((5-methyl-1H-benzotriazol-4-yl)methyl)benzamide]",96
6,"Cc1ccc2[nH]nnc2c1CNC(=O)c1cc(F)c(Cl)c(F)c1 [Example 198, 4-chloro-3,5-difluoro-N-((5-methyl-1H-benzotriazol-4-yl)methyl)benzamide]",90
7,"Cc1ccc2[nH]nnc2c1CNC(=O)c1ccc(C(F)(F)F)c(F)c1 [Example 199, 3-fluoro-N-((5-methyl-1H-benzotriazol-4-yl)methyl)-4-(trifluoromethyl)-benzamide]",92
8,"Cc1ccc(C(=O)NCc2c(C)ccc3[nH]nnc23)cc1F [Example 200, 3-fluoro-4-methyl-N-((5-methyl-1H-benzotriazol-4-yl)methyl)benzamide]",85
9,"COc1ccc(C(=O)NCc2c(C)ccc3[nH]nnc23)cc1F [Example 201, 3-fluoro-4-methoxy-N-((5-methyl-1H-benzotriazol-4-yl)methyl)benzamide]",92
10,"Cc1ccc2[nH]nnc2c1CNC(=O)c1cc(F)c(F)c(Cl)c1 [Example 202, 3-chloro-4,5-difluoro-N-((5-methyl-1H-benzotriazol-4-yl)methyl)benzamide]",83
11,"O=C(NCc1c(C2CC2)ccc2[nH]nnc12)c1ccc(OC(F)(F)F)cc1 [Example 203, N-((5-cyclopropyl-1H-benzotriazol-4-yl)methyl)-4-(trifluoromethoxy)-benzamide]",93
12,"COc1c(F)cc(C(=O)NCc2c(C3CC3)ccc3[nH]nnc23)cc1F [Example 204, N-((5-cyclopropyl-1H-benzotriazol-4-yl)methyl)-3,5-difluoro-4-methoxybenzamide]",93
13,"CCc1ccc2[nH]nnc2c1CNC(=O)c1cc(F)c(C(F)(F)F)c(F)c1 [Example 205, N-((5-ethyl-1H-benzotriazol-4-yl)methyl)-3,5-difluoro-4-(trifluoromethyl)-benzamide]",87
14,"CCc1ccc2[nH]nnc2c1CNC(=O)c1cc(F)c(OC)c(F)c1 [Example 206, N-((5-ethyl-1H-benzotriazol-4-yl)methyl)-3,5-difluoro-4-methoxybenzamide]",95
15,"COc1ccc2[nH]nnc2c1CNC(=O)c1cc(F)c(OC)c(F)c1 [Example 207, 3,5-difluoro-4-methoxy-N-((5-methoxy-1H-benzotriazol-4-yl)methyl)benzamide]",98
16,"CCc1ccc2[nH]nnc2c1CNC(=O)c1cnc(OC)c(F)c1 [Example 208, N-((5-ethyl-1H-benzotriazol-4-yl)methyl)-5-fluoro-6-methoxynicotinamide]",85
17,"CCc1ccc2[nH]nnc2c1CNC(=O)c1ccc(OC(F)(F)F)cc1 [Example 209, N-((5-ethyl-1H-benzotriazol-4-yl)methyl)-4-(trifluoromethoxy)-benzamide]",94
18,"COc1c(F)cc(C(=O)NCc2c(F)ccc3ncn(C)c23)cc1F [Example 210, 3,5-difluoro-N-((6-fluoro-1-methyl-1H-benzimidazol-7-yl)methyl)-4-methoxybenzamide]",90
19,"COc1c(F)cc(C(=O)NCc2cccc3[nH]nnc23)cc1F [Example 211, N-(1H-benzotriazol-4-ylmethyl)-3,5-difluoro-4-methoxybenzamide]",95
20,"O=C(NCc1c(C2CC2)ccc2[nH]nnc12)c1ccc(OC(F)F)c(F)c1 [Example 212, N-((5-cyclopropyl-1H-benzotriazol-4-yl)methyl)-4-(difluoromethoxy)-3-fluorobenzamide]",93
21,"COc1ccc2[nH]nnc2c1CNC(=O)c1ccc(OC(F)(F)F)cc1 [Example 213, N-((5-methoxy-1H-benzotriazol-4-yl)methyl)-4-(trifluoromethoxy)-benzamide]",98
22,"COc1ccc2nc(C)n(C)c2c1CNC(=O)c1cc(F)c(OC)c(F)c1 [Example 214, 3,5-difluoro-4-methoxy-N-((6-methoxy-1,2-dimethyl-lH-benzimidazol-7-yl)methyl)benzamide]",86
